The results in this text go back to ChEMBL document CHEMBL1201862, “PubChem BioAssay data set” (2004).

Assay in all cases: NCI-60 cell line screen, 48 h
Assay [1] deals with EKVX.
Assay [2] deals with ACHN.
In assay [3] the test system is OVCAR-3.
The subject of assay [4] is KM-20L2.
The subject of assay [5] is IGROV-1.
In assay [6] the test system is OVCAR-8.
Assay [7] deals with SF-295.
Assay [8] concerns SNB-19.
Assay [9] deals with CAKI-1.
Assay [10] concerns HOP-62.
Assay [11] has as its system RXF 393.
In assay [12] the test system is NCI-H23.
Assay [13] deals with SNB-75.
In assay [14] the test system is NCI-H522.
Assay [15] has as its system HCC 2998.
Assay [16] has as its system A498.

Molecules are shown by their SMILES.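 Grown in 96-well plates, cells were treated for 48 hours with each compound at five concentrations. Insufficient inhibition: endpoint recorded as highest concentration tested. The concentration for 50% growth inhibition is given as GI50.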 The source made the active and inactive calls. No stated cut-off is given here; in the data, active = GI50 up to about 1.1 µM and inactive = higher.

`CCC1=C(C)/C(=C/c2[nH]c(CBr)c(CC)c2C)N=C1CBr`: the GI50 in assay [1] is 21.7 µM (inactive); in assay [2], > 10 µM (inactive); in assay [3], 16.1 µM (inactive); in assay [4] it was 11.4 µM (inactive); in assay [5], 18.5 µM (inactive); in [6] it was 7.23 µM (inactive). For the same compound, the GI50 in [7] is 20.9 µM (inactive); in [8], 16.4 µM (inactive); in assay [9], 10.2 µM (inactive); in [10], 15 µM (inactive); in [11] it was 12.1 µM (inactive); in assay [12], 14.6 µM (inactive). The GI50 in assay [13] is 29.6 µM (inactive); in [14], 2.81 µM (inactive); in assay [15], 12.2 µM (inactive).

Consider `CN1C(c2ccccc2)CC(=Nc2ccccc2)CC1c1ccccc1` (centres undefined), for which the GI50 was 16.2 µM (inactive) in [1]; 8.93 µM (inactive) in [3]; 13.3 µM (inactive) in assay [4]; 12.6 µM (inactive) in assay [5]; 6.97 µM (inactive) in [6]; 15.6 µM (inactive) in [7]. The GI50 was 14.3 µM (inactive) in assay [8]; 17.5 µM (inactive) in assay [9]; 18 µM (inactive) in [10]; 16.6 µM (inactive) in assay [11]; 15.6 µM (inactive) in [12]; 16.7 µM (inactive) in [13]. Further, the GI50 in assay [14] was 4.65 µM (inactive).

With `COc1cccc(-n2c3nc(=O)n(C)c(=O)c-3nc3ccccc32)c1`, the GI50 is 29.8 µM (inactive) in assay [1]; 3.18 µM (inactive) in assay [2]; 2.69 µM (inactive) in [3]; 4.83 µM (inactive) in [4]; 18.7 µM (inactive) in assay [5]; 14.6 µM (inactive) in assay [6]. Moreover, the GI50 is 13.2 µM (inactive) in assay [7]; 22 µM (inactive) in assay [8]; 16.2 µM (inactive) in assay [9]; 37.9 µM (inactive) in assay [10]; 34.5 µM (inactive) in assay [16]; 15.7 µM (inactive) in assay [12]. The GI50 in assay [13] is 19.6 µM (inactive); in [14] it was 29.3 µM (inactive); in [15] it was 3.88 µM (inactive).

For `CC1=C(C(=O)Nc2ccccc2)C(c2ccccc2Cl)C(C(=O)Nc2ccccc2)=C(C)N1`, the GI50 was 14.3 µM (inactive) in [1]; 30.5 µM (inactive) in assay [2]; 17.6 µM (inactive) in assay [3]; 22.2 µM (inactive) in assay [4]; 27.9 µM (inactive) in assay [5]; 29.4 µM (inactive) in assay [6]. Besides, the GI50 in assay [7] was 25.4 µM (inactive); in [8] it was 24.8 µM (inactive); in assay [9] it was 27.9 µM (inactive); in assay [10], 20.1 µM (inactive); in assay [16] it was 27.8 µM (inactive); in assay [12], 26.4 µM (inactive). Moreover, the GI50 in assay [13] was 28.1 µM (inactive); in assay [14] it was 19.6 µM (inactive); in [15], 21.2 µM (inactive).

Consider `CCOc1ccc(OCC)c([P+](c2ccccc2)(c2ccccc2)c2ccccc2)c1`, for which the GI50 in [1] was 1.1 µM (active); in assay [2], 1.65 µM (inactive); in assay [3] it was 0.162 µM (active); in [4], 0.333 µM (active); in assay [5], 0.356 µM (active); in assay [6], 0.358 µM (active). Also, the GI50 is 0.33 µM (active) in [7]; 0.378 µM (active) in assay [8]; 1.29 µM (inactive) in [9]; 1.07 µM (active) in assay [10]; 0.785 µM (active) in assay [16]; 0.968 µM (active) in [11]. For the same compound, the figures for the GI50 in [12], in assay [13] and in assay [15] were 0.254 µM (active), 1.09 µM (active) and 0.305 µM (active), respectively.

`CCOc1ccccc1NC(=O)CC1Sc2ccccc2NC1=O` (centres undefined): the GI50 in assay [1] is 41.5 µM (inactive); in [2] it was 75.9 µM (inactive); in assay [3], 37.5 µM (inactive); in assay [4], 57.7 µM (inactive); in assay [5], 45.5 µM (inactive); in assay [6] it was 58.3 µM (inactive). The GI50 in assay [7] was 43.6 µM (inactive); in assay [8], > 100 µM (inactive); in assay [9], 95.7 µM (inactive); in assay [10] it was 73.3 µM (inactive); in assay [11], > 100 µM (inactive); in assay [12] it was 61.2 µM (inactive). In addition, the values for the GI50 in assay [13], in [14] and in assay [15] were 31.2 µM (inactive), 27.4 µM (inactive) and > 100 µM (inactive), respectively.

`CC1=NN2C(c3ccc([N+](=O)[O-])cc3)=CSC2=NC(C)(C)C1`: the GI50 in assay [1], in assay [2], in assay [3], in assay [4], in assay [5] and in assay [6] was > 100 µM (inactive) each time. Also, the GI50 in assay [7], in assay [8], in assay [10], in assay [16], in assay [11] and in assay [12] was > 100 µM (inactive) throughout. Also, the GI50 in assay [13], in assay [14] and in assay [15] was > 100 µM (inactive) in each case.

For the compound `CCOC(=O)C(Sc1ccccc1)c1c(OC)cc(=O)oc1/C=[N+](/[O-])c1ccc(N(C)C)cc1` (centres undefined), the GI50 in assay [1] is 33.3 µM (inactive); in assay [2], > 10 µM (inactive); in [3], 13.2 µM (inactive); in [4] it was 31.8 µM (inactive); in assay [5], 42.4 µM (inactive); in assay [6], 18.4 µM (inactive). The GI50 in assay [7] was 24.4 µM (inactive); in assay [8], 54.8 µM (inactive); in assay [9] it was 14.9 µM (inactive); in [10], 66.4 µM (inactive); in assay [16], 52.7 µM (inactive); in [11] it was 16.2 µM (inactive). Besides, the GI50 in [12] was 27.5 µM (inactive); in [13], 31.3 µM (inactive); in [15] it was 23.9 µM (inactive).

In the case of `CN(C)CC1CCC/C1=N/OC(=O)c1ccccc1` (centres undefined), the GI50 in assay [2], in assay [3], in assay [4], in assay [5], in [6] and in assay [7] was > 100 µM (inactive) throughout. Moreover, the GI50 in assay [9], in [10], in assay [16], in assay [11], in assay [12] and in assay [13] was > 100 µM (inactive) throughout. The GI50 in [14] and in [15] was > 100 µM (inactive) in each case.

As to `Cc1nc2c(=O)n(C)c(=O)nc-2n(-c2ccc(Cl)cc2)c1C`, the GI50 in assay [1] is > 100 µM (inactive); in assay [2], 58.6 µM (inactive); in assay [3], > 100 µM (inactive); in [4], 46.7 µM (inactive); in assay [5], > 100 µM (inactive); in assay [6], > 100 µM (inactive). In addition, the GI50 in [7] is > 100 µM (inactive); in assay [8], > 100 µM (inactive); in assay [9] it was 43.1 µM (inactive); in assay [10] it was > 100 µM (inactive); in assay [16], > 100 µM (inactive); in assay [12], > 100 µM (inactive). Moreover, the GI50 in assay [13], in assay [14] and in assay [15] was > 100 µM (inactive) each time.

Consider `C/C(=N\Nc1nnc(S)n1N)c1c(O)cc(C)oc1=O`, for which the GI50 in assay [1], in assay [2], in assay [4], in [6], in [7] and in assay [8] was > 100 µM (inactive) throughout. Moreover, the GI50 in assay [9], in assay [10], in assay [16], in [12], in [13] and in assay [14] was > 100 µM (inactive) in each case. Further, the GI50 in assay [15] was > 100 µM (inactive).

As for `O=C(CC1(O)C(=O)Nc2c(Cl)cccc21)c1ccccc1` (centres undefined), the GI50 in [1], in assay [2], in assay [3], in assay [4], in assay [6] and in [7] was > 100 µM (inactive) each time. In addition, the GI50 in assay [8] was > 100 µM (inactive); in assay [9] it was > 100 µM (inactive); in assay [10], > 100 µM (inactive); in assay [11] it was > 100 µM (inactive); in [12], > 100 µM (inactive); in assay [13], 85.9 µM (inactive). The GI50 in assay [14] and in assay [15] was > 100 µM (inactive) in each case.

For `C/C=C/CC(S(=O)(=O)c1ccccc1)S(=O)(=O)c1ccccc1`, the GI50 in [1], in assay [2], in [3], in [4], in [5] and in assay [6] was > 100 µM (inactive) in each case. The GI50 in assay [7] is > 100 µM (inactive); in [8], > 100 µM (inactive); in assay [10], 85.5 µM (inactive); in [16], > 100 µM (inactive); in [11] it was > 100 µM (inactive); in [12], > 100 µM (inactive). Besides, the values for the GI50 in assay [13], in [14] and in assay [15] were 32.7 µM (inactive), 12 µM (inactive) and > 100 µM (inactive), respectively.
